Results: publication PMC8007718, “A prostate-specific membrane antigen (PSMA)-targeted prodrug with a favorable in vivo toxicity profile” (Scientific Reports, 2021)
*1 amine or outer side, *2 acyl side, *3 side chain or, on linkers, in order; H or OH if unused. Where a SMILES comes first, the peptide text is derived from it. [ ]: non-standard residue; d: D form. The star is where a group is joined. X1 = O=C(O)CC[C@H](NC(=O)N[C@@H](CCCCNC(=O)CCCCCCC(=O)*)C(=O)O)C(=O)O; Dolaproine = CO[C@@H]([C@@H]1CCCN1)[C@@H](C)C(=O)O; Dil = CC[C@H](C)[C@H](NC)[C@@H](CC(=O)O)OC; PABC = O=C(OCc1ccc(N[*:1])cc1)[*:2]; X2 = C[C@@H](N*)[C@@H](O)c1ccccc1; Cit = NC(=O)NCCC[C@H](N)C(=O)O; NMeV = CN[C@H](C(=O)O)C(C)C

Biological target: T1, cathepsin B (Homo sapiens, UniProt P07858)
T1 construct: gene CTSB; recombinant cathepsin B
Assay: cleavage by recombinant cathepsin B followed by HPLC (MMAE release)
Format: biochemical

CC[C@H](C)[C@@H]([C@@H](CC(=O)N1CCC[C@H]1[C@H](OC)[C@@H](C)C(=O)N[C@H](C)[C@@H](O)c1ccccc1)OC)N(C)C(=O)[C@@H](NC(=O)[C@H](C(C)C)N(C)C(=O)OCc1ccc(NC(=O)[C@H](CCCNC(N)=O)NC(=O)[C@@H](NC(=O)CCCCCCC(=O)NCCCC[C@H](NC(=O)N[C@@H](CCC(=O)O)C(=O)O)C(=O)O)C(C)C)cc1)C(C)C [SBPD-1, (6S,9S,24S,28S)-1-amino-6-((4-((5S,8S,11S)-11-((S)-sec-butyl)-12-(2-((S)-2-((1R,2R)-3-(((1S,2R)-1-hydroxy-1-phenylpropan-2-yl)amino)-1-methoxy-2-methyl-3-oxopropyl)pyrrolidin-1-yl)-2-oxoethyl)-5,8-diisopropyl-4,10-dimethyl-3,6,9-trioxo-2,13-dioxa-4,7,10-triazatetradecyl)phenyl)carbamoyl)-9-isopropyl-1,8,11,18,26-pentaoxo-2,7,10,19,25,27-hexaazatriacontane-24,28,30-tricarboxylic acid] (X1-V[Cit][PABC][NMeV]V[Dil][Dolaproine]-X2)
metabolised at 3 h: 80%
